Like-named read-outs stand apart in the source and are kept apart here.
How the values were obtained:
HT-29 = assay: Inhibition of cells growth by colorimetric (SRB) assay, HT-29; conditions: for GI50 / CC50: Homo sapiens, HT-29, 48 h
Description: (§1) The finality of these assays is to interrupt the growth of a “in vitro” tumor cell culture by means a continued exhibition of the cells to the sample to be testing.
(§2) This form of the assay employs 96 well cell culture microplates of 9 mm diameter (Faircloth, 1988; Mosmann, 1983). Most of the cell lines are obtained from American Type Culture Collection (ATCC) derived from different human cancer types.
(§3) Cells are maintained in RPMI 1640 10% FBS, supplemented with 0.1 g/l penicillin and 0.1 g/l streptomycin sulphate and then incubated at 37° C., 5% CO2 and 98% humidity. For the experiments, cells were harvested from subconfluent cultures using trypsin and resuspended in fresh medium before plating.
(§4) Cells are seeded in 96 well microtiter plates, at 5×10^3 cells per well in aliquots of 195 μl medium, and they are allowed to attach to the plate surface by growing in drug free medium for 18 hours. Afterward, samples are added in aliquots of 5 μl in a ranging from 10 to 10^−8 μg/ml, dissolved in DMSO/EtOH/PBS (0.5:0.5:99). After 48 hours exposure, the antitumor effect are measured by the SRB methodology: cells are fixed by adding 50 μl of cold 50% (wt/vol) trichloroacetic acid (TCA) and incubating for 60 minutes at 4° C. Plates are washed with deionized water and dried. One hundred μl of SRB solution (0.4% wt/vol in 1% acetic acid) is added to each microtiter well and incubated for 10 minutes at room temperature. Unbound SRB is removed by washing with 1% acetic acid. Plates are air dried and bound stain is solubilized with Tris buffer. Optical densities are read on a automated spectrophotometric plate reader at a single wavelength of 490 nm.
(§5) The values for mean +/−SD of data from triplicate wells are calculated. Some parameters for cellular responses can be calculated: GI=growth inhibition, TGI=total growth inhibition (cytostatic effect) and LC=cell killing (cytotoxic effect).

A-549 = assay: Inhibition of cells growth by colorimetric (SRB) assay, A-549; conditions: for GI50 / CC50: Homo sapiens, A549, 48 h
Description: as §1, §2, §3, §4, §5

[1] = read-out: GI50 HT-29, SRB assay, 48 hours exposure
[2] = read-out: LC50 HT-29, SRB assay, 48 hours exposure
[3] = read-out: GI50 A-549, SRB assay, 48 hours exposure
[4] = read-out: LC50 A-549, SRB assay, 48 hours exposure

In the case of `COc1ccc(COc2nccc(-c3c4cccnc4n4c(N)nccc34)n2)cc1` [Compound 79], the GI50 (HT-29; read-out: HT-29 GI50, SRB assay, 48 hours exposure) is reported as 25.1 µM, the CC50 (HT-29; read-out: HT-29 LC50, SRB assay, 48 hours exposure) is reported as 25.1 µM and the “HT-29 TGI” value (HT-29; SRB assay, 48 hours exposure) is reported as 2.51E−05. The GI50 (A-549; read-out: A-549 GI50, SRB assay, 48 hours exposure) was 25.1 µM, the CC50 (A-549; read-out: A-549 LC50, SRB assay, 48 hours exposure) was 25.1 µM and the “A-549 TGI” value (A-549; SRB assay, 48 hours exposure) was 2.51E−05.

`Nc1nccc(-c2c3c(OCc4ccccc4)ccnc3n3c(N)nccc23)n1` [Compound 96] was tested, and the GI50 (HT-29; [1]) was 16.2 µM, the CC50 (HT-29; [2]) was 26.1 µM and the “TGI HT-29” value (HT-29; SRB assay, 48 hours exposure) was 2.61E−05. For the same compound, the GI50 (A-549; [3]) was 12.3 µM, the CC50 (A-549; [4]) was 26.1 µM and the “TGI A-549” value (A-549; SRB assay, 48 hours exposure) was 2.61E−05.

In the case of `CCOc1nccc(-c2c3c(OCc4ccccc4)ccnc3n3c(N)nccc23)n1` [Compound 103], the GI50 (HT-29; [1]) is reported as 11.9 µM, the CC50 (HT-29; [2]) is reported as 24.2 µM and the “TGI HT-29” value (HT-29; SRB assay, 48 hours exposure) is reported as 2.42E−05. For the same compound, the GI50 (A-549; [3]) was 11.5 µM, the CC50 (A-549; [4]) was 24.2 µM and the “TGI A-549” value (A-549; SRB assay, 48 hours exposure) was 2.42E−05.

With `Nc1nccc2c(-c3ccnc(OCc4ccccc4)n3)c3c(OCc4ccccc4)ccnc3n12` [Compound 104] the GI50 (HT-29; [1]) was 21.1 µM, the CC50 (HT-29; [2]) was 21.1 µM and the “TGI HT-29” value (HT-29; SRB assay, 48 hours exposure) was 2.11E−05. The GI50 (A-549; [3]) was 21.1 µM, the CC50 (A-549; [4]) was 21.1 µM and the “TGI A-549” value (A-549; SRB assay, 48 hours exposure) was 2.11E−05.
